Data published in PMC6517818, “The yeast mitochondrial pyruvate carrier is a hetero‐dimer in its functional state” (The EMBO Journal, 2019).
Like-named read-outs stand apart in the source and are kept apart here. One block for each molecule: values may come before it.

B3: Mpc3 after nickel-affinity purification and Factor Xa cleavage of the histidine tag (natural protein, S. cerevisiae, UniProt P53311 1-146, looked up)
chain: MSASAFNFAFRRFWNSETGPKTVHFWAPTLKWGLVFAGLNDIKRPVEKVSGAQNLSLLATALIWTRWSFVIKPKNYLLASVNFFLGCTAGYHLTRIANFRIRNGDSFKQVIHYIIKGETPAAVAAKQTASTSMNKGVIGTNPPITH
notes: Mpc3, S. cerevisiae, UniProt P53311; codon-optimised synthetic gene; theoretical mass 17.1 kDa; Same construct as m2 after tag removal; The residues IEGR of the Factor Xa site probably remain at the C-terminus after cleavage (surmised); source: S. cerevisiae mitochondria (with Mpc1: W303-1B or SHY15; alone: SHY15), purified (nickel Sepharose, on-column Factor Xa cleavage) in LMNG and tetraoleoyl …

How the values were obtained:
[1] = biological target: T1, Mpc1 (Mpc1/Mpc3 hetero-dimer, mitochondrial pyruvate carrier) (Saccharomyces cerevisiae, UniProt P53157+P53311); assay: […]-pyruvate homo-exchange inhibition in proteoliposomes; format: biochemical
T1 construct: Mpc1/Mpc3 hetero-complex, untagged Mpc1 co-expressed with C-terminally tagged Mpc3, reconstituted in liposomes; with Mpc3 (P53311)
T1 sequence (P53157 1-130): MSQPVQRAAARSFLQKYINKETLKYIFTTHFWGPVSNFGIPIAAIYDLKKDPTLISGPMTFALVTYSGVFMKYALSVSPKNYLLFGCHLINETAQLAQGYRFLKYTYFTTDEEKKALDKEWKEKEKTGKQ
T1 sequence (P53311 21-146): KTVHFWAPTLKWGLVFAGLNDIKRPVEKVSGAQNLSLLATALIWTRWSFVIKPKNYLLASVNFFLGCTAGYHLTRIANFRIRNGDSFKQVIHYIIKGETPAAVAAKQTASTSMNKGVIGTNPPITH

[2] = biological target: T2, Mpc2 (Mpc1/Mpc2 hetero-complex, MPCFERM) (Saccharomyces cerevisiae, UniProt P38857+P53157); assay: time course of pyruvate homo-exchange in proteoliposomes at ΔpH […]; format: biochemical
T2 construct: Mpc1/Mpc2 hetero-complex with C-terminally tagged Mpc2, reconstituted in liposomes; with Mpc1 (P53157)
T2 sequence (P38857 1-129): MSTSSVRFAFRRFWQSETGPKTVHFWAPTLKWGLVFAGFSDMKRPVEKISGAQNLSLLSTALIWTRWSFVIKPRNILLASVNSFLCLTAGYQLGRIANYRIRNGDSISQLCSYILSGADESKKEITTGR
T2 sequence (P53157 1-130): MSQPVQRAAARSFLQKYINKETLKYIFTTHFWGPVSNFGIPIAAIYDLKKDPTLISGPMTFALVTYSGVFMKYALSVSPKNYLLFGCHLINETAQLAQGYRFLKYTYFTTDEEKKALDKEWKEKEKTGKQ

[3] = substrate: CC(=O)C(=O)O; assay: purified protein; format: biochemical, Saccharomyces cerevisiae
[4] = biological target: B3; assay: SEC-MALS; SEC-MALLS, Superdex 200 10/300 GL; 20 mM Tris-HCl pH 7.4, 150 mM NaCl, 0.005% LMNG, 0.005 mg/ml TOCL; nickel-affinity-purified Mpc1/Mpc3 complex or Mpc3 alone injected; protein-conjugate method; conditions: both partners purified
[5] = biological target: T3, Mpc3 with a C-terminal Factor Xa cleavage site and octa-histidine tag (S. cerevisiae, UniProt P53311 1-146); assay: pull-down; nickel-affinity co-purification: untagged Mpc1 co-expressed with His8-tagged partner in yeast mitochondria; solubilised in 1% LMNG, 20 mM Tris-HCl pH 7.4, 150 mM NaCl, 4 °C; bound to nickel Sepharose, washed with 40 mM imidazole, 0.1% LMNG, 0.1 mg/ml TOCL; released by on-column Factor Xa cleavage; SDS-PAGE with Coomassie stain and peptide mass fingerprinting; Mpc1/Mpc3 also purified in Triton X-100, DMNG …; conditions: partners not purified
T3 construct: Mpc3, S. cerevisiae, UniProt P53311; codon-optimised synthetic gene; This is the tagged form as captured on the nickel resin; The complex was then released by on-column Factor Xa cleavage; also called Mpc3his; histidine-tagged Mpc3; source: S. cerevisiae mitochondria (SHY15 or W303-1B), co-expressed from pBEVY-GU with untagged Mpc1; LMNG-solubilised mitochondria, captured on nickel …
T3 sequence (looked up): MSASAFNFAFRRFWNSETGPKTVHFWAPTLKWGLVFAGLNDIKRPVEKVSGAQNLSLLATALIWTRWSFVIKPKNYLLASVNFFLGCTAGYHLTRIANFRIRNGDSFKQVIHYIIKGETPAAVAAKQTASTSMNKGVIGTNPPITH

[6] = biological target: the molecule itself; assay: SEC-MALS; SEC-MALLS, Superdex 200 10/300 GL; 20 mM Tris-HCl pH 7.4, 150 mM NaCl, 0.005% LMNG, 0.005 mg/ml TOCL; nickel-affinity-purified Mpc1/Mpc3 complex or Mpc3 alone injected; protein-conjugate method

IC50 ([1]; read-out: IC50): 27 ± 13 µM
Molecule: CN(Cc1ccccc1)c1ccc2cc(C(=O)O)c(=O)oc2c1 [7ACC2]

IC50 ([1]; read-out: IC50): 9 ± 7 µM
Molecule: N#C/C(=C\c1cn(-c2ccccc2)c2ccccc12)C(=O)O [UK5099]

Molecule: O=C(O)c1nn(Cc2ccc(Cl)cc2Cl)c2ccccc12 [lonidamine]
IC50 [1]: 118 ± 24 µM

Molecule: CC(=O)C(=O)O [pyruvate]
time course of pyruvate homo-exchange in proteoliposomes at ΔpH 1.6 [2]: the Mpc1/Mpc2 hetero‐complex was also active for ΔpH‐dependent pyruvate transport (Fig EV4D)

B1: Mpc1 (Mpc1/Mpc3 hetero-dimer, mitochondrial pyruvate carrier) (Saccharomyces cerevisiae S288C) (protein)
chain 1: MSQPVQRAAARSFLQKYINKETLKYIFTTHFWGPVSNFGIPIAAIYDLKKDPTLISGPMTFALVTYSGVFMKYALSVSPKNYLLFGCHLINETAQLAQGYRFLKYTYFTTDEEKKALDKEWKEKEKTGKQ
chain 2: KTVHFWAPTLKWGLVFAGLNDIKRPVEKVSGAQNLSLLATALIWTRWSFVIKPKNYLLASVNFFLGCTAGYHLTRIANFRIRNGDSFKQVIHYIIKGETPAAVAAKQTASTSMNKGVIGTNPPITH
notes: Mpc1/Mpc3 hetero-complex, untagged Mpc1 co-expressed with C-terminally tagged Mpc3, reconstituted in liposomes; with Mpc3 (P53311)
Km [3]: 342 ± 58 µM

stoichiometry N [4]: 1 Mpc1:Mpc3 | stoichiometry N [5]: 1 Mpc1:Mpc3
B2: Mpc1 (untagged), mitochondrial pyruvate carrier protein 1 from Saccharomyces cerevisiae (natural protein, S. cerevisiae, UniProt P53157 1-130, looked up)
chain: MSQPVQRAAARSFLQKYINKETLKYIFTTHFWGPVSNFGIPIAAIYDLKKDPTLISGPMTFALVTYSGVFMKYALSVSPKNYLLFGCHLINETAQLAQGYRFLKYTYFTTDEEKKALDKEWKEKEKTGKQ
notes: Mpc1, S. cerevisiae, UniProt P53157; codon-optimised synthetic gene; theoretical mass 15 kDa; also called unmodified Mpc1; source: S. cerevisiae mitochondria (SHY15 or W303-1B), co-expressed from pBEVY-GU with histidine-tagged Mpc3 or Mpc2; co-purified on nickel Sepharose in LMNG and tetraoleoyl cardiolipin

Molecule: B3
stoichiometry N [6]: 2
